Assay results from PubChem BioAssay AID1259407 (Chemical Carcinogenesis Research Information System (CCRIS), 2018).
Calls of active or inactive are those of the source. The rule behind the calls is not given here.

Tested on: CCRIS mutagenicity, Ames/micronucleus/aberration tests
Experiment: CCRIS mutagenicity studies
[1] = Test System: AMES SALMONELLA TYPHIMURIUM, Strain/Indicator: TA98, Metabolic Activation: NONE, Method: PREINCUBATION
[2] = Test System: AMES SALMONELLA TYPHIMURIUM, Strain/Indicator: TA100, Metabolic Activation: NONE, Method: STANDARD PLATE

With OCc1ccc2ccc3cccc4ccc1c2c34 the mutagenic call (Test System: AMES SALMONELLA TYPHIMURIUM, Strain/Indicator: TA98, Metabolic Activation: HUMAN, LIVER, CYTOSOL, PAPS, Method: PREINCUBATION) was “active; positive”, the mutagenic call [1] was “inactive; negative” and the mutagenic call (Test System: AMES SALMONELLA TYPHIMURIUM, Strain/Indicator: TA98, Metabolic Activation: RAT, LIVER, CYTOSOL, KCL, Method: PREINCUBATION) was “inactive; negative”. For the same molecule, the mutagenic call (Test System: AMES SALMONELLA TYPHIMURIUM, Strain/Indicator: TA98, Metabolic Activation: RAT, LIVER, CYTOSOL, PAPS, KCL, Method: PREINCUBATION) was “active; positive”, the mutagenic call (Test System: AMES SALMONELLA TYPHIMURIUM, Strain/Indicator: TA98, Metabolic Activation: RAT, LIVER, CYTOSOL, PAPS, Method: PREINCUBATION) was “active; positive” and the mutagenic call (Test System: AMES SALMONELLA TYPHIMURIUM, Strain/Indicator: TA98, Metabolic Activation: RAT, LIVER, PAPS, KCL, Method: PREINCUBATION) was “inactive; negative”. The mutagenic call (Test System: AMES SALMONELLA TYPHIMURIUM, Strain/Indicator: TA98, Metabolic Activation: RAT, LIVER, S-9, NADPH, Method: PREINCUBATION) was “active; positive”, the mutagenic call (Test System: UDS CHINESE HAMSTER V-79 CELLS, Metabolic Activation: NONE, Method: AUTORADIOGRAPHY) was “active; positive” and the mutagenic call (Test System: UDS CHINESE HAMSTER V-79 CELLS, Strain/Indicator: V-79-MZ/CYTIDINE INCORPORATION, Metabolic Activation: NONE, Method: AUTORADIOGRAPHY) was “inactive; negative”. For the same molecule, the mutagenic call (Test System: UDS CHINESE HAMSTER V-79 CELLS, Strain/Indicator: V-79-RHST20/CYTIDINE INCORPORATION, Metabolic Activation: NONE, Method: AUTORADIOGRAPHY) was “active; positive”, the mutagenic call (Test System: UDS CHINESE HAMSTER V-79 CELLS, Strain/Indicator: V-79-RHSTA/CYTIDINE INCORPORATION, Metabolic Activation: NONE, Method: AUTORADIOGRAPHY) was “active; positive” and the mutagenic call (Test System: UDS CHINESE HAMSTER V-79 CELLS, Strain/Indicator: V-79-RPST-IV/CYTIDINE INCORPORATION, Metabolic Activation: NONE, Method: AUTORADIOGRAPHY) was “active; positive”.

CC(C)(C)N(CCO)CCO was tested, and the mutagenic call (Test System: AMES SALMONELLA TYPHIMURIUM, Strain/Indicator: TA98, Metabolic Activation: NONE, Method: STANDARD PLATE) was “inactive; negative”, the mutagenic call (Test System: AMES SALMONELLA TYPHIMURIUM, Strain/Indicator: TA98, Metabolic Activation: RAT, LIVER, S-9, AROCLOR 1254, Method: STANDARD PLATE) was “inactive; negative” and the mutagenic call [2] was “inactive; negative”. For the same molecule, the mutagenic call (Test System: AMES SALMONELLA TYPHIMURIUM, Strain/Indicator: TA100, Metabolic Activation: RAT, LIVER, S-9, AROCLOR 1254, Method: STANDARD PLATE) was “inactive; negative”, the mutagenic call (Test System: AMES SALMONELLA TYPHIMURIUM, Strain/Indicator: TA1535, Metabolic Activation: NONE, Method: STANDARD PLATE) was “inactive; negative” and the mutagenic call (Test System: AMES SALMONELLA TYPHIMURIUM, Strain/Indicator: TA1535, Metabolic Activation: RAT, LIVER, S-9, AROCLOR 1254, Method: STANDARD PLATE) was “inactive; negative”. For the same molecule, the mutagenic call (Test System: AMES SALMONELLA TYPHIMURIUM, Strain/Indicator: TA1537, Metabolic Activation: NONE, Method: STANDARD PLATE) was “inactive; negative”, the mutagenic call (Test System: AMES SALMONELLA TYPHIMURIUM, Strain/Indicator: TA1537, Metabolic Activation: RAT, LIVER, S-9, AROCLOR 1254, Method: STANDARD PLATE) was “inactive; negative” and the mutagenic call (Test System: AMES SALMONELLA TYPHIMURIUM, Strain/Indicator: TA1538, Metabolic Activation: NONE, Method: STANDARD PLATE) was “inactive; negative”. For the same molecule, the mutagenic call (Test System: AMES SALMONELLA TYPHIMURIUM, Strain/Indicator: TA1538, Metabolic Activation: RAT, LIVER, S-9, AROCLOR 1254, Method: STANDARD PLATE) was “inactive; negative”, the mutagenic call (Test System: CHINESE HAMSTER OVARY, Strain/Indicator: CHO-K1-BH4, Metabolic Activation: NONE) was “inactive; negative” and the mutagenic call (Test System: CHINESE HAMSTER OVARY, Strain/Indicator: CHO-K1-BH4, Metabolic Activation: RAT, LIVER, S-9, AROCLOR 1254) was “inactive; negative”.

For N[C@@H](CCC(=O)NNc1ccccc1)C(=O)O, the mutagenic call [2] was “inactive; negative”, the mutagenic call (Test System: AMES SALMONELLA TYPHIMURIUM, Strain/Indicator: TA100, Metabolic Activation: RAT KIDNEY, MICROSOMES, Method: STANDARD PLATE) was “active; positive” and the mutagenic call (Test System: AMES SALMONELLA TYPHIMURIUM, Strain/Indicator: TA100, Metabolic Activation: RAT LIVER, MICROSOMES, Method: STANDARD PLATE) was “inactive; negative”.

CCCCC(C)=O was tested, and the mutagenic call (Test System: CHINESE HAMSTER V-79, Strain/Indicator: V-79 (HPRT)/6-THIOGUANINE, Metabolic Activation: NONE, Method: STANDARD PLATE) was “inactive; negative” and the mutagenic call (Test System: CHINESE HAMSTER V-79, Strain/Indicator: V-79 (HPRT)/6-THIOGUANINE, Metabolic Activation: RAT LIVER S-9, Method: STANDARD PLATE) was “inactive; negative”.

In the case of CS, the mutagenic call [1] is reported as “inactive; negative”, the mutagenic call (Test System: AMES SALMONELLA TYPHIMURIUM, Strain/Indicator: TA98, Metabolic Activation: RAT, LIVER, S-9, SODIUM PHENOBARBITAL AND 5,6-BENZOFLAVONE, Method: PREINCUBATION) is reported as “inactive; negative” and the mutagenic call (Test System: AMES SALMONELLA TYPHIMURIUM, Strain/Indicator: TA100, Metabolic Activation: NONE, Method: PREINCUBATION) is reported as “inactive; negative”. The mutagenic call (Test System: AMES SALMONELLA TYPHIMURIUM, Strain/Indicator: TA100, Metabolic Activation: RAT, LIVER, S-9, SODIUM PHENOBARBITAL AND 5,6-BENZOFLAVONE, Method: PREINCUBATION) was “inactive; negative”, the mutagenic call (Test System: AMES SALMONELLA TYPHIMURIUM, Strain/Indicator: TA102, Metabolic Activation: NONE, Method: PREINCUBATION) was “inactive; negative” and the mutagenic call (Test System: AMES SALMONELLA TYPHIMURIUM, Strain/Indicator: TA102, Metabolic Activation: RAT, LIVER, S-9, SODIUM PHENOBARBITAL AND 5,6-BENZOFLAVONE, Method: PREINCUBATION) was “inactive; negative”. For the same molecule, the mutagenic call (Test System: AMES SALMONELLA TYPHIMURIUM, Strain/Indicator: TA104, Metabolic Activation: NONE, Method: PREINCUBATION) was “inactive; negative”, the mutagenic call (Test System: AMES SALMONELLA TYPHIMURIUM, Strain/Indicator: TA104, Metabolic Activation: RAT, LIVER, S-9, SODIUM PHENOBARBITAL AND 5,6-BENZOFLAVONE, Method: PREINCUBATION) was “inactive; negative” and the mutagenic call (Test System: AMES SALMONELLA TYPHIMURIUM, Strain/Indicator: TA1535, Metabolic Activation: NONE, Method: PREINCUBATION) was “inactive; negative”. For the same molecule, the mutagenic call (Test System: AMES SALMONELLA TYPHIMURIUM, Strain/Indicator: TA1535, Metabolic Activation: RAT, LIVER, S-9, SODIUM PHENOBARBITAL AND 5,6-BENZOFLAVONE, Method: PREINCUBATION) was “inactive; negative”, the mutagenic call (Test System: AMES SALMONELLA TYPHIMURIUM, Strain/Indicator: TA1537, Metabolic Activation: NONE, Method: PREINCUBATION) was “inactive; negative” and the mutagenic call (Test System: AMES SALMONELLA TYPHIMURIUM, Strain/Indicator: TA1537, Metabolic Activation: RAT, LIVER, S-9, SODIUM PHENOBARBITAL AND 5,6-BENZOFLAVONE, Method: PREINCUBATION) was “inactive; negative”. For the same molecule, the mutagenic call (Test System: E. COLI, Strain/Indicator: WP2UVRA/PKM101, Metabolic Activation: NONE, Method: PREINCUBATION) was “inactive; negative”, the mutagenic call (Test System: E. COLI, Strain/Indicator: WP2UVRA/PKM101, Metabolic Activation: RAT, LIVER, S-9, SODIUM PHENOBARBITAL AND 5,6-BENZOFLAVONE, Method: PREINCUBATION) was “inactive; negative” and the mutagenic call (Test System: E. COLI, Strain/Indicator: WP2UVRA, Metabolic Activation: NONE, Method: PREINCUBATION) was “inactive; negative”. The mutagenic call (Test System: E. COLI, Strain/Indicator: WP2UVRA, Metabolic Activation: RAT, LIVER, S-9, SODIUM PHENOBARBITAL AND 5,6-BENZOFLAVONE, Method: PREINCUBATION) was “inactive; negative”.

In the case of CC1=CC(=O)c2c(O)c3c(c(O)c2C1=O)C1C(O)C(C3=O)C23C(=O)c4c(O)c(C)cc(O)c4C(O)=C2C(=O)CC(O)C13 (stereo unspecified), the mutagenic call (Test System: UDS RODENT HEPATOCYTES, Strain/Indicator: THY INCORP, Metabolic Activation: NONE, Method: AUTORADIOGRAPHY) is reported as “inactive; negative”.
